From the supplement of paper PMC10307832

How the values were obtained:
Test in all cases: relative viability (nuclei count vs DMSO), 5 days (fraction); higher = more cells survive
Vismodegib + Linsitinib = compound: CS(=O)(=O)c1ccc(C(=O)Nc2ccc(Cl)c(-c3ccccn3)c2)c(Cl)c1 [Vismodegib] + C[C@]1(O)C[C@@H](c2nc(-c3ccc4ccc(-c5ccccc5)nc4c3)c3c(N)nccn32)C1 [Linsitinib] (partner 1 µM)
How it was run: (§1)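 Nuclei were stained with Hoechst during a one-step fixation (final 0.05% Triton X-100, 1% formaldehyde, 1 ug/ml Hoechst) carried out 5 days after dosing, then counted on 4× images. The cells, lung cancer lines in 1536-well plates, had been dosed by pin tool the day after seeding with one drug alone or a fixed anchor-drug dose plus five library-drug doses (not always all listed) in √10 steps. Relative viability is the nuclei count in treated wells divided by that in vehicle wells, and each value is the median of duplicate plates.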

VE-821 + Lapatinib = compound: CS(=O)(=O)c1ccc(-c2cnc(N)c(C(=O)Nc3ccccc3)n2)cc1 [VE-821] + CS(=O)(=O)CCNCc1ccc(-c2ccc3ncnc(Nc4ccc(OCc5cccc(F)c5)c(Cl)c4)c3c2)o1 [Lapatinib] (partner 2 µM)
How it was run: as §1

Vismodegib + Bortezomib = compound: CS(=O)(=O)c1ccc(C(=O)Nc2ccc(Cl)c(-c3ccccn3)c2)c(Cl)c1 [Vismodegib] + CC(C)C[C@H](NC(=O)[C@H](Cc1ccccc1)NC(=O)c1cnccn1)B(O)O [Bortezomib] (partner 0.002 µM)
How it was run: as §1

VE-821 + Navitoclax = compound: CS(=O)(=O)c1ccc(-c2cnc(N)c(C(=O)Nc3ccccc3)n2)cc1 [VE-821] + CC1(C)CCC(c2ccc(Cl)cc2)=C(CN2CCN(c3ccc(C(=O)NS(=O)(=O)c4ccc(N[C@H](CCN5CCOCC5)CSc5ccccc5)c(S(=O)(=O)C(F)(F)F)c4)cc3)CC2)C1 [Navitoclax] (partner 0.5 µM)
How it was run: as §1

| Cell Line | relative viability (Vismodegib + Linsitinib; first compound 0.08 µM) | relative viability (Vismodegib + Linsitinib; first compound 0.253 µM) | relative viability (Vismodegib + Linsitinib; first compound 0.8 µM) | relative viability (Vismodegib + Linsitinib; first compound 2.53 µM) | relative viability (Vismodegib + Linsitinib; first compound 8 µM) | relative viability (VE-821 + Lapatinib; first compound 0.08 µM) | relative viability (VE-821 + Lapatinib; first compound 0.253 µM) | relative viability (VE-821 + Lapatinib; first compound 0.8 µM) | relative viability (VE-821 + Lapatinib; first compound 2.53 µM) | relative viability (VE-821 + Lapatinib; first compound 8 µM) | relative viability (Vismodegib + Bortezomib; first compound 0.08 µM) | relative viability (Vismodegib + Bortezomib; first compound 0.253 µM) | relative viability (Vismodegib + Bortezomib; first compound 0.8 µM) | relative viability (Vismodegib + Bortezomib; first compound 2.53 µM) | relative viability (Vismodegib + Bortezomib; first compound 8 µM) | relative viability (VE-821 + Navitoclax; first compound 0.08 µM) | relative viability (VE-821 + Navitoclax; first compound 0.253 µM) | relative viability (VE-821 + Navitoclax; first compound 0.8 µM) | relative viability (VE-821 + Navitoclax; first compound 2.53 µM) | relative viability (VE-821 + Navitoclax; first compound 8 µM) |
| --- | --- | --- | --- | --- | --- | --- | --- | --- | --- | --- | --- | --- | --- | --- | --- | --- | --- | --- | --- | --- |
| NCI-H358 | 0.777 | 0.667 | 0.712 | 0.817 | 0.765 | 0.445 | 0.376 | 0.486 | 0.553 | 0.489 | – | – | – | – | – | – | – | – | – | – |
| ChaGo-K-1 | – | – | – | – | – | – | – | – | – | – | 0.971 | 0.957 | 0.845 | 0.744 | 1.04 | 0.929 | 1.06 | 1.22 | 1.03 | 0.594 |
| NCI-H1563 | 1.17 | 1.34 | 1.26 | 1.01 | 1.2 | 0.92 | 0.981 | 0.812 | 0.912 | 0.792 | 0.845 | 0.881 | 0.904 | 0.922 | 0.906 | – | – | – | – | – |
| LCLC-103H | 0.938 | 1.05 | 0.988 | 1.05 | 1.04 | – | – | – | – | – | 1.05 | 1.03 | 1.07 | 0.99 | 0.983 | – | – | – | – | – |
| NCI-H441 | 0.419 | 0.562 | 0.48 | 0.508 | 0.653 | – | – | – | – | – | 0.535 | 0.588 | 0.522 | 0.319 | 0.523 | 0.858 | 0.673 | 0.38 | 0.768 | 0.563 |
| NCI-H650 | 0.868 | 0.799 | 0.679 | 0.994 | 0.949 | 0.887 | 0.929 | 0.903 | 0.957 | 0.982 | 0.855 | 0.735 | 0.795 | 0.732 | 0.687 | – | – | – | – | – |
| ABC-1 | 0.666 | 0.682 | 0.79 | 0.821 | 0.794 | 1.3 | 1.32 | 0.811 | 0.953 | 0.994 | 0.332 | 0.244 | 0.331 | 0.299 | 0.324 | – | – | – | – | – |
| NCI-H1793 | – | 0.701 | 0.903 | 1.04 | 0.824 | 0.868 | 0.735 | 0.642 | 1.31 | 0.815 | – | – | – | – | – | 0.693 | 0.507 | 0.251 | 0.449 | 0.314 |
| NCI-H1395 | 1.07 | 1.36 | 0.961 | 0.961 | 1.18 | 0.902 | 1.15 | 0.903 | 0.987 | 0.768 | – | – | – | – | – | – | 1.09 | 1.3 | 1.32 | 0.72 |
| NCI-H2170 | – | – | – | – | – | 0.289 | 0.278 | 0.256 | 0.272 | 0.272 | – | – | – | – | – | 0.598 | 0.561 | 0.512 | 0.554 | 0.323 |
| A549 | 0.537 | 0.566 | 0.448 | 0.526 | 0.615 | 1.14 | 0.849 | 0.929 | 0.829 | 0.475 | – | – | – | – | – | 1.48 | 1.21 | 1.18 | 1.04 | 0.544 |
| LK-2 | 0.427 | 0.49 | 0.539 | 0.46 | 0.378 | 1.18 | 0.891 | 0.891 | 0.906 | 0.874 | – | – | – | – | – | 0.996 | 0.965 | 0.767 | 1.06 | 0.97 |
